Common to all, as to format: physicochemical
The nature of series [1]: Dynamic vapor sorption (DVS) moisture sorption isotherm, Hiden IGA-sorp. The note with it: for weight gain when humidity increased from 0% RH to 95% RH: 25° C., 0% RH up to 95% RH. On the procedure: (§1) DVS moisture sorption isotherms were generated using a Hiden Analytical IGA-sorp moisture sorption analyzer. Samples were run as received without pre-analysis drying. Each sample was equilibrated between about 30 and 120 minutes at each relative humidity (RH) step. Temperature was fixed at about 25° C. and the relative humidity steps (0 to 95% RH) were in 5-10% increments. Sample sizes ranged from 3 to 30 mg. After DVS measurement, XRPD was measured in order to check the solid form. Dynamic Vapor sorption (DVS) moisture sorption isotherms were generated using IGA-sorp moisture sorption analyzer (Hiden Analytical). Sample measurements were run without drying before analyses. XRPD was measured in order to check any changes of the solid form after the moisture sorption/desorption. The measurement condition is shown below: • Time at each RH steps: From 30 to 120 minutes • Relative humidity steps: 5 or 10% steps • Temperature: 25° C.

Series [2] is described as follows: Thermogravimetric analysis (TGA). The note with it: for TG weight loss: from 70° C., hydrochloride. On the procedure: TGA analyses were performed using a TA Instruments TGA Q500 thermogravimetric analyzer. Each sample was analyzed on a platinum pan, heated under a nitrogen purge at a rate of 10° C./min, from room temperature to 250° C. or 300° C.
Thermo-Gravimetric Analyzer (TGA) analyses were performed using TGA Q500 thermogravimetric analyzer (TA Instruments). Each sample was analyzed on a platinum pan. The measurement condition is shown below: • Atmosphere: Nitrogen • Elevated temperature rate: 10° C./min • Temperature range: From room temperature to 250 or 300° C.

A short description of series [3]: Temperature controlled XRPD (crystal form stability on heating). The conditions noted are these: up to melting. On the procedure:
Temperature controlled XRPD was measured by the X'pert-MPD with an Anton Paar TCU 100 Temperature Control Unit. Sample was measured from 30° C. to 250° C. or 270° C. with 10° C. increments. Measurement conditions were as follows: range: 4-30°, step: 0.017°, time per step: 100 s.
FT-Raman, XRPD, DSC, TGA, and DVS instruments and techniques were similar to those in Example 3. Temperature controlled XRPD was measured by X'pert-Pro MIPD (Spectris) with TCU 100 Temperature Control Unit (Anton Paar). The temperature of the sampling stage was increased step by step as programmed and XRPD patterns of sample were measured at each step. The measurement condition is shown below: • Range angle: From 4 to 30° • Step size: 0.017° • Time per step: 100 s

Series [4] can be described thus: Storage at 75% RH (saturated NaCl), solid form checked by Raman/XRPD. The conditions noted are these: overnight / 1 day. On the procedure:
Fumaric acid salt Form FB has about 3.8% weight loss from low temperature with TGA measurement. From DVS result, there is about 5% weight gain at over 75% RH, so polymorphic form seems to be changed. […] Therefore, Form FA seems to be di-hydrate. Form FB seems to be mono-hydrate. The thermal behavior of Form FA is a little different from that of Form FB. Form FA generated the experiment described above using about 28 mg of fumaric acid and about 2 mL of THE seems to be easy to be dehydrated. It can be affected by vacuum dry. When Form FA and Form FB are placed under dry condition or heated, anhydrous form can be obtained. But they are quickly transformed to be hydrous form by obtaining water in the air.
It was confirmed that Form HC was reproducible even in the scale up study. […] The NMR spectrum shown indicated no presence of organic solvents.

Series [5] is described as follows: XRPD before and after DVS measurement (moisture sorption/desorption). On the procedure: as §1
The nature of series [6]: Polymorph study of Compound 1 Hydrochloride (solvent, slurry screening, scale up; FT-Raman/XRPD). The note with it: on filtration/drying, humidity or room temperature. How it is done: FT-Raman analyses were performed by using MultiRAM (Bruker Optics). Each suspension or dry powder sample was measured from out of glass vial. The measurement condition is shown below: • Excitation wavelength: 1064 nm • Laser power: 500 mW • Wavenumber: 4 cm-1 • Sample scan: 128 times
X-ray Powder Diffraction (XRPD) spectra were obtained by X′ pert Pro MPD (Spectris). X-rays was generated with Cu Kα radiation. The powder samples were put on the reflection free sample plate. The XRPD patterns were analyzed by HighScorePlus. The measurement condition is shown below: • Range angle: From 4 to 30°, to 40° and to 65° (20) • Step size: 0.017° • Time per step: 100 s
Compound 1 Hydrochloride, Form HA (about 5 mg) was put into each small glass vial and various types of solvents were added until the sample was dissolved at about 90° C. or boiling point. Maximum volume of solvent was about 500 μL. After the solution and suspension was heated for a few hours, the heater was switched off and the sample was cooled. The vials were preserved at about 5° C. Crystals obtained in the vials were measured directly by FT-Raman. After solvent was evaporated by opening the cap of vial, crystals obtained were also measured directly by FT-Raman. Solids were then collected and evaluated by XRPD and thermal analysis as needed.
Compound 1 Hydrochloride, Form HA (about 10 mg) was put into each small glass vial and various types of organic solvents mixed with water were added. After each sample was suspended at room temperature for about 3 days, suspended solids in the vials were measured directly by FT-Raman. Furthermore, each sample was suspended at about 50° C. for about 3 days and these were measured directly by FT-Raman. Solids were then collected and evaluated by XRPD, thermal analysis and DVS as needed.
Compound 1 Hydrochloride, Form HA (about 100 mg) was put into a glass vial and about 1 mL of EtOH mixed with water (10:1) was added. […] It was analyzed by XRPD, thermal analysis, ^1H-NMR, elemental analysis and ion-chromatography.

“Also recorded” adds a separate entry of the source. Where two headings read alike, the source gives them in different places.

Turning to `CNC[C@@H]1OCCn2nc3ccccc3c21.O=S(=O)(O)c1ccccc1` [Compound 1 Besylate, (S)-1-(3,4-dihydro-1H-[1,4]oxazino[4,3-b]indazol-1-yl)-N-methylmethanamine benzenesulfonate], the “weight gain at 95% RH” value in series [1] (about 25° C.) is reported as “about 2%”. Also, the “hygroscopicity (in words)” value in series [1] (listed as besylate, benzenesulfonate) is listed as “less hygroscopicity; also recorded: low hygroscopicity”. Further, the “TGA weight loss (in words)” value in series [2] is recorded as “no weight loss until melting”.

`CNC[C@@H]1OCCn2nc3ccccc3c21.O=C(O)/C=C/C(=O)O` [Compound 1 Fumarate, (S)-1-(3,4-dihydro-1H-[1,4]oxazino[4,3-b]indazol-1-yl)-N-methylmethanamine fumarate]: the “hygroscopicity (in words)” value in series [1] is reported as “no hygroscopicity”.

For `CNC[C@@H]1OCCn2nc3ccccc3c21.O=P(O)(O)O` [Compound 1 Phosphate, (S)-1-(3,4-dihydro-1H-[1,4]oxazino[4,3-b]indazol-1-yl)-N-methylmethanamine phosphate], the “TGA weight loss (in words)” value in series [2] (listed as phosphate salt, phosphate) is on record as “large amount of weight loss at low temperature”; in series [2] (phosphate), “large amount of weight loss from low temperature”.

Take `CNC[C@@H]1OCCn2nc3ccccc3c21.O=S(=O)(O)c1ccccc1` [Form BA, (S)-1-(3,4-dihydro-1H-[1,4]oxazino[4,3-b]indazol-1-yl)-N-methylmethanamine benzenesulfonate]: in series [1] (another batch of Form BA), the “weight gain at 90% RH” value is “about 1%” and the “weight gain at 95% RH” value was “about 2%”. For the same compound, in series [1] (one batch of Form BA), the “weight gain at 90% RH” value is “about 2%” and the “weight gain at 95% RH” value is given as “about 8%”. The “hygroscopicity (in words)” value in series [1] (benzenesulfonate) is on record as “less hygroscopicity; also recorded: good hygroscopicity behavior”. Further, the “transformation to another polymorph on heating” value (“transformation” below) in series [3] is reported as “not transformed to any other polymorph”.

Take `CNC[C@@H]1OCCn2nc3ccccc3c21.O=C(O)/C=C/C(=O)O` [Form FA, (S)-1-(3,4-dihydro-1H-[1,4]oxazino[4,3-b]indazol-1-yl)-N-methylmethanamine fumarate]: the “transformation” value in series [3] is recorded as “not transformed to any other polymorph”.

Turning to `CNC[C@@H]1OCCn2nc3ccccc3c21.O=C(O)/C=C/C(=O)O` [Form FB, (S)-1-(3,4-dihydro-1H-[1,4]oxazino[4,3-b]indazol-1-yl)-N-methylmethanamine fumarate], the “weight gain at over 75% RH” value in series [1] (over 75% RH) is reported as “about 5%”. The “change of crystal form on storage at high humidity” value in series [4] is given as “Form FA was observed”. For the same compound, the TGA weight loss entry in series [2] (from low temperature) is given as “about 3.8%”.

Regarding `CNC[C@@H]1OCCn2nc3ccccc3c21.Cl` [Form HA, (S)-1-(3,4-dihydro-1H-[1,4]oxazino[4,3-b]indazol-1-yl)-N-methylmethanamine hydrochloride], the “weight gain at 95% RH” value in series [1] (about 25° C.) was “over 100%”. For the same compound, in series [1] (hydrochloride), the “hygroscopicity (in words)” value was “Highly hygroscopic”. Besides, the TG weight loss result in series [2] was “over 17.1%”. In addition, in series [5] (hydrochloride), the “change of crystal form after DVS measurement” value (from here on “change … after DVS measurement”) is given as “transformed to Form HC mixed with an unidentified polymorph”.

As to `CNC[C@@H]1OCCn2nc3ccccc3c21.Cl` [Form HB, (S)-1-(3,4-dihydro-1H-[1,4]oxazino[4,3-b]indazol-1-yl)-N-methylmethanamine hydrochloride], the “stability of the crystal form” value in series [6] was “transformed to Form HC or Form HA when it was filtrated and dried; also recorded: Not stable”.

As to `CNC[C@@H]1OCCn2nc3ccccc3c21.Cl` [Form HC, (S)-1-(3,4-dihydro-1H-[1,4]oxazino[4,3-b]indazol-1-yl)-N-methylmethanamine hydrochloride], the “weight gain when humidity increased from 0% RH to 95% RH” value in series [1] is reported as 9.3%. The “weight gain between 60% RH and 70% RH” value in series [1] (between 60% RH and 70% RH) is given as 6.5%. The “hygroscopicity (in words)” value in series [1] (hydrochloride) is given as “hygroscopic”. The “stability of the crystal form” value in series [6] is reported as “Transformed to Form D at the humidity level of more than 70% RH”. For the same compound, in series [4], the “change of crystal form on storage at high humidity” value is on record as “transformed to Form HD”. In addition, the TG weight loss in series [2] is listed as 6.6%. Moreover, in series [5] (hydrochloride), the “change … after DVS measurement” value was “basically stable”.

With `CNC[C@@H]1OCCn2nc3ccccc3c21.Cl` [Form HD, (S)-1-(3,4-dihydro-1H-[1,4]oxazino[4,3-b]indazol-1-yl)-N-methylmethanamine hydrochloride], the “stability of the crystal form” value in series [6] was “Transformed to Form C at room temperature”.

Consider `CNC[C@@H]1OCCn2nc3ccccc3c21.Cc1ccc(S(=O)(=O)O)cc1` [Form TA, (S)-1-(3,4-dihydro-1H-[1,4]oxazino[4,3-b]indazol-1-yl)-N-methylmethanamine tosylate], for which, in series [1], the “weight gain when humidity increased from 0% RH to 95% RH” value is roughly 1%. The “hygroscopicity (in words)” value in series [1] (tosylate) is recorded as “less hygroscopicity; also recorded: good hygroscopicity behavior; also recorded: non-hygroscopicity”. Further, in series [3] (tosylate), the “transformation” value is “not transformed to any other polymorph; also recorded: not transformed to another form until the melting point”. For the same compound, the “TGA weight loss (in words)” value in series [2] is reported as “no weight loss until melting”. Moreover, the “change … after DVS measurement” value in series [5] is recorded as “no changes of the crystal form”.
